≈ marks a conversion by molar mass, not a printed value. Where two headings read alike, the source gives them in different places.
Assays:
[1] = test system: E. coli AG100; experiment: Membrane potential assay (BacLight, DiOC2(3)); settings: positive control 156 µM (half MIC)
[2] = test system: E. coli K-12 AG100 (wild-type); experiment: MIC, broth microdilution; assay type: cell-based; settings: Escherichia coli
[3] = test system: E. coli AG100A (AcrAB pump-deficient); experiment: MIC, broth microdilution; assay type: cell-based, Escherichia coli; settings: Escherichia coli
[4] = test system: E. coli AG100tet (AcrAB overexpressing); experiment: MIC, broth microdilution; assay type: cell-based, Escherichia coli; settings: Escherichia coli
[5] = test system: E. coli AG100; experiment: Checkerboard synergy assay (MIC of antibiotics/EtBr with efflux inhibitor); assay type: cell-based, Escherichia coli; settings: Escherichia coli
Description: (§1) The assays were performed in triplicate and the MIC value was given as result of at least two concordant values.

[6] = test system: E. coli AG100A; experiment: microbe, parasite or virus in culture; assay type: cell-based, Escherichia coli; settings: Escherichia coli, AG100A, read-out: MIC without efflux inhibitor
Description: The minimum inhibitory concentrations (MICs) were determined using the broth microdilution method according to the CLSI guidelines ([Clinical and Laboratory Standards Institute, 2014]). […] Two-fold serial dilutions of the compounds were made to achieve the following concentrations: 320 µM–40 µM. The MICs were determined as the lowest concentration at which no visible growth was observed after 18 h of incubation at 37 °C. The assays were performed in triplicate and the MIC value was given as result of at least two concordant values.

[7] = test system: E. coli AG100tet; experiment: microbe, parasite or virus in culture; assay type: cell-based, Escherichia coli; settings: Escherichia coli, AG100TET, read-out: MIC without efflux inhibitor, AG100tet; inhibitor 0 μM
Description: as §1

[8] = test system: E. coli AG100A; settings: AG100A
[9] = test system: E. coli AG100; experiment: EtBr accumulation by real-time fluorometry
[10] = test system: E. coli AG100tet; experiment: EtBr accumulation by real-time fluorometry; settings: AG100tet

For `N#CC(C#N)=NNc1cccc(Cl)c1` [CCCP, carbonyl cyanide-m-chlorophenylhydrazone], the “percentage of depolarized cells (membrane potential collapse)” value [1] was “over 95%”.

Molecule `Cc1onc(-c2ccccc2)c1C(=O)N[C@@H]1C(=O)N2[C@@H]1SC(C)(C)[C@@H]2C(=O)O` [OXA, oxacillin] has an MIC ([2]; E. coli AG100 wild-type, read-out: MIC) of 512 µg/mL (≈ 1280 µM), an MIC [3] of 2 µg/mL (≈ 4.98 µM) and an MIC [4] greater than 2050 µg/mL. The MIC ([5]; AG100, AG100, inhibitor 0 μM, read-out: MIC without efflux inhibitor) was 512 µg/mL, the MIC [6] was 2 µg/mL (≈ 4.98 µM) and the MIC [7] was greater than 2050 µg/mL.

`CC[n+]1c(-c2ccccc2)c2cc(N)ccc2c2ccc(N)cc21` [EtBr, ethidium bromide] was tested, and the MIC [2] was 200 µg/mL, the MIC [3] was 3.12 µg/mL and the MIC [4] was 512 µg/mL. For the same molecule, the MIC ([5]; AG100, read-out: MIC without efflux inhibitor) was 200 µg/mL, the MIC [6] was 3.12 µg/mL and the MIC [7] was 512 µg/mL. For the same molecule, the “equilibrium concentration (influx equals efflux)” value (shortened to “equilibrium concentration”) [8] was 0.25 µg/mL, the “equilibrium concentration” value ([9]; AG100) was 1 µg/mL and the EtBr fluorescence ([9]; EtBr 0.5 µg/ml, cycle 1) was 3.237. For the same molecule, the EtBr fluorescence ([9]; EtBr 0.5 µg/ml, cycle 7) was 3.883, the EtBr fluorescence ([9]; EtBr 0.5 µg/ml, cycle 8) was 4.039 and the EtBr fluorescence ([9]; EtBr 0.5 µg/ml, cycle 9) was 4.222. The EtBr fluorescence ([9]; EtBr 0.5 µg/ml, cycle 10) was 4.226, the EtBr fluorescence ([9]; EtBr 0.5 µg/ml, cycle 11) was 4.3568 and the EtBr fluorescence ([9]; EtBr 0.5 µg/ml, cycle 12) was 4.419. The EtBr fluorescence ([9]; EtBr 0.5 µg/ml, cycle 13) was 4.6831, the EtBr fluorescence ([9]; EtBr 0.5 µg/ml, cycle 14) was 4.514 and the EtBr fluorescence ([9]; EtBr 0.5 µg/ml, cycle 15) was 4.795. It also gave an EtBr fluorescence ([9]; EtBr 0.5 µg/ml, cycle 16) of 4.926, an EtBr fluorescence ([9]; EtBr 0.5 µg/ml, cycle 17) of 4.878 and an EtBr fluorescence ([9]; EtBr 0.5 µg/ml, cycle 18) of 4.912. It also gave an EtBr fluorescence ([9]; EtBr 0.5 µg/ml, cycle 19) of 5.122, an EtBr fluorescence ([9]; EtBr 0.5 µg/ml, cycle 20) of 5.073 and an EtBr fluorescence ([9]; EtBr 0.5 µg/ml, cycle 21) of 5.194. The EtBr fluorescence ([9]; EtBr 0.5 µg/ml, cycle 22) was 5.233, the EtBr fluorescence ([9]; EtBr 0.5 µg/ml, cycle 23) was 5.309 and the EtBr fluorescence ([9]; EtBr 0.5 µg/ml, cycle 24) was 5.461. The EtBr fluorescence ([9]; EtBr 0.5 µg/ml, cycle 25) was 5.593, the EtBr fluorescence ([9]; EtBr 0.5 µg/ml, cycle 26) was 5.584 and the EtBr fluorescence ([9]; EtBr 0.5 µg/ml, cycle 27) was 5.69. The EtBr fluorescence ([9]; EtBr 0.5 µg/ml, cycle 28) was 5.64, the EtBr fluorescence ([9]; EtBr 0.5 µg/ml, cycle 29) was 5.6965 and the EtBr fluorescence ([9]; EtBr 0.5 µg/ml, cycle 30) was 5.739. It also gave an EtBr fluorescence ([9]; EtBr 1 µg/ml, cycle 1) of 4.697, an EtBr fluorescence ([9]; EtBr 1 µg/ml, cycle 2) of 4.852 and an EtBr fluorescence ([9]; EtBr 1 µg/ml, cycle 3) of 5.005. For the same molecule, the EtBr fluorescence ([9]; EtBr 1 µg/ml, cycle 4) was 5.143, the EtBr fluorescence ([9]; EtBr 1 µg/ml, cycle 5) was 5.505 and the EtBr fluorescence ([9]; EtBr 1 µg/ml, cycle 6) was 5.767. For the same molecule, the EtBr fluorescence ([9]; EtBr 1 µg/ml, cycle 7) was 5.841, the EtBr fluorescence ([9]; EtBr 1 µg/ml, cycle 8) was 6.0562 and the EtBr fluorescence ([9]; EtBr 1 µg/ml, cycle 9) was 6.088. It also gave an EtBr fluorescence ([9]; EtBr 1 µg/ml, cycle 10) of 6.339, an EtBr fluorescence ([9]; EtBr 1 µg/ml, cycle 11) of 6.446 and an EtBr fluorescence ([9]; EtBr 1 µg/ml, cycle 12) of 6.666. For the same molecule, the EtBr fluorescence ([9]; EtBr 1 µg/ml, cycle 13) was 6.748, the EtBr fluorescence ([9]; EtBr 1 µg/ml, cycle 14) was 6.978 and the EtBr fluorescence ([9]; EtBr 1 µg/ml, cycle 15) was 7.028. It also gave an EtBr fluorescence ([9]; EtBr 1 µg/ml, cycle 16) of 7.227, an EtBr fluorescence ([9]; EtBr 1 µg/ml, cycle 17) of 7.381 and an EtBr fluorescence ([9]; EtBr 1 µg/ml, cycle 18) of 7.326. It also gave an EtBr fluorescence ([9]; EtBr 1 µg/ml, cycle 19) of 7.434, an EtBr fluorescence ([9]; EtBr 1 µg/ml, cycle 20) of 7.666 and an EtBr fluorescence ([9]; EtBr 1 µg/ml, cycle 21) of 7.737. It also gave an EtBr fluorescence ([9]; EtBr 1 µg/ml, cycle 22) of 7.695, an EtBr fluorescence ([9]; EtBr 1 µg/ml, cycle 23) of 7.798 and an EtBr fluorescence ([9]; EtBr 1 µg/ml, cycle 24) of 7.86. The EtBr fluorescence ([9]; EtBr 1 µg/ml, cycle 25) was 7.955, the EtBr fluorescence ([9]; EtBr 1 µg/ml, cycle 26) was 7.794 and the EtBr fluorescence ([9]; EtBr 1 µg/ml, cycle 27) was 7.948. For the same molecule, the EtBr fluorescence ([9]; EtBr 1 µg/ml, cycle 28) was 8.04, the EtBr fluorescence ([9]; EtBr 1 µg/ml, cycle 29) was 8.111 and the EtBr fluorescence ([9]; EtBr 1 µg/ml, cycle 30) was 8.205. For the same molecule, the EtBr fluorescence ([9]; EtBr 2 µg/ml, cycle 1) was 9.029, the EtBr fluorescence ([9]; EtBr 2 µg/ml, cycle 2) was 9.296 and the EtBr fluorescence ([9]; EtBr 2 µg/ml, cycle 3) was 9.71. It also gave an EtBr fluorescence ([9]; EtBr 2 µg/ml, cycle 4) of 9.991, an EtBr fluorescence ([9]; EtBr 2 µg/ml, cycle 5) of 10.2954 and an EtBr fluorescence ([9]; EtBr 2 µg/ml, cycle 12) of 12.653. For the same molecule, the EtBr fluorescence ([9]; EtBr 2 µg/ml, cycle 13) was 13.0282, the EtBr fluorescence ([9]; EtBr 2 µg/ml, cycle 14) was 13.3381 and the EtBr fluorescence ([9]; EtBr 2 µg/ml, cycle 15) was 13.5191. For the same molecule, the EtBr fluorescence ([9]; EtBr 2 µg/ml, cycle 16) was 13.6733, the EtBr fluorescence ([9]; EtBr 2 µg/ml, cycle 17) was 14.0513 and the EtBr fluorescence ([9]; EtBr 2 µg/ml, cycle 18) was 14.1241. It also gave an EtBr fluorescence ([9]; EtBr 2 µg/ml, cycle 19) of 14.4449, an EtBr fluorescence ([9]; EtBr 2 µg/ml, cycle 20) of 14.643 and an EtBr fluorescence ([9]; EtBr 2 µg/ml, cycle 21) of 14.9287. It also gave an EtBr fluorescence ([9]; EtBr 2 µg/ml, cycle 22) of 15.1966, an EtBr fluorescence ([9]; EtBr 2 µg/ml, cycle 23) of 15.196 and an EtBr fluorescence ([9]; EtBr 2 µg/ml, cycle 24) of 15.3241. For the same molecule, the EtBr fluorescence ([9]; EtBr 2 µg/ml, cycle 25) was 15.6489, the EtBr fluorescence ([9]; EtBr 2 µg/ml, cycle 26) was 15.801 and the EtBr fluorescence ([9]; EtBr 2 µg/ml, cycle 27) was 15.8722. For the same molecule, the EtBr fluorescence ([9]; EtBr 2 µg/ml, cycle 28) was 16.0341, the EtBr fluorescence ([9]; EtBr 2 µg/ml, cycle 29) was 16.3924 and the EtBr fluorescence ([9]; EtBr 2 µg/ml, cycle 30) was 16.548. For the same molecule, the “equilibrium concentration” value [10] was 2 µg/mL.

`CN(C)[C@@H]1C(O)=C(C(N)=O)C(=O)[C@@]2(O)C(O)=C3C(=O)c4c(O)cccc4[C@@](C)(O)[C@H]3C[C@@H]12` [TET, tetracycline] showed an MIC [3] of 0.5 µg/mL (≈ 1.13 µM), an MIC [4] of 64 µg/mL (≈ 144 µM) and an MIC [6] of 0.5 µg/mL (≈ 1.13 µM). It also gave an MIC [7] of 64 µg/mL (≈ 144 µM).
